Experiments:
Type in all cases: in vivo
[1] = tested on: Rhizoctonia solani; experiment: Preventive activity against sheath blight of rice plants (Experiment 2); design: key: 0 = disease as untreated, 5 = no disease (complete control); settings: rice seedlings (variety Nihonbare), sprayed at 100 ppm (30 ml/3 pots) 24 hours before inoculation, 5 days; height of the lesions
Method: Rice seedlings (variety Nihonbare) at the 4 - 5 leaf stage were sprayed with an aqueous suspension of the test compound at a concentration of 100 ppm (30 ml/3 pots). The seedlings were then kept for 24 hours at room temperature, after which they were inoculated with the fungus, Rhizoctonia solani, by placing 4 - 5 oat grains on which the fungus had previously been cultured around the base of each seedling. The seedlings were then kept in a moist chamber for 5 days at 25 - 27 °C. The disease controlling index was given on the basis of the height of the lesions formed on the rice seedlings.
Except in Table 12G, the compounds tested have the formula (1-1), in which Ar represents the group shown at the beginning of each part of the Table and R^1, R^2, X and Y are as defined in the Table.
(§1) The disease controlling index shown in the foregoing Tables 11 to 19 is indicated by the following codes: • 5--no disease (complete control) • 4--disease rate is less than 10% of the untreated plant • 3--disease rate is 10% - 30% of the untreated plant • 2--disease rate is 30% - 50% of the untreated plant • 1--disease rate is 50% - 70% of the untreated plant • 0--disease rate is almost same as the untreated plant.

[2] = tested on: Rhizoctonia solani; experiment: Preventive activity against sheath blight of rice plants by submerged application (Experiment 4); settings: rice seedlings (variety Nihonbare), applied to the water in the pots, 100 g per 10 ares, inoculated after 7 days, 5 days; height of the lesions
Source text: Rice seedlings (variety Nihonbare) at the 4 - 5 leaf stage grown in pots were flooded to a depth of 1 cm with water. The test compound was then applied to the water in the pots in an amount corresponding to 100 g per 10 ares. After keeping the seedlings in a greenhouse for 7 days, the water was drained from the pots and the seedlings were inoculated with the fungus, Rhizoctonia solani, by placing 4 - 5 oat grains on which the fungus had previously been cultured around the base of each seedling. The seedlings were then kept in a moist chamber for 5 days at 25 - 27 °C. The disease controlling index was given on the basis of the height of the lesions formed on the rice seedlings.
Except for Table 14F, the compounds tested have the formula (1-1), in which Ar represents the group shown at the beginning of each part of the Table and R^1, R^2, X and Y are as defined in the Table.
as §1

[3] = tested on: Puccinia recondita; experiment: Curative activity against leaf rust of wheat (Experiment 6); settings: wheat seedlings (variety Norin No 61), sprayed after inoculation at 3 ppm (30 ml/3 pots), 10 days; diseased area on the first leaf
Method: Wheat seedlings (variety Norin No 61) at the first leaf stage were inoculated with the fungus, Puccinia recondita, by spraying them with a spore suspension of the fungus. They were then kept in a moist chamber for 24 hours at 20 - 22 °C, after which they were moved to a greenhouse at 15 - 20 °C. […] The seedlings were then continuously kept in the greenhouse for 10 days. The disease controlling index was given on the basis of diseased area on the first leaf.

[4] = tested on: Erysiphe graminis f.sp. hordei; experiment: Curative activity against powdery mildew of barley (Experiment 7); settings: barley seedlings (variety Sekishinriki), sprayed one day after inoculation at 3 ppm (30 ml/3 pots), further 10 days; diseased area on the first leaf
Method: Barley seedlings (variety […]) at the first leaf stage were inoculated with conidia of Erysiphe graminis f.sp. hordei and kept in a greenhouse at 15 - 20°C. After one day, the seedlings were sprayed with an aqueous suspension of the test compound at a concentration of 3 ppm (30 ml/3 pots), and they continued to be kept in the greenhouse at that temperature for a further 10 days. The disease controlling index was given on the basis of the diseased area on the first leaf.

[5] = tested on: Sphaerotheca fuliginea; experiment: Preventive activity against powdery mildew of cucumber (Experiment 8); settings: cucumber seedlings sprayed at 300 ppm, inoculated after 24 hours, evaluated after 7 days in greenhouse; diseased area on third and fourth leaves
Method: Cucumber seedlings (variety Sagamihanpaku) at the 3 - 4 leaf stage were sprayed with an aqueous suspension of the test compound at a concentration of 300 ppm (30 ml/3 pots). The seedlings were then kept for 24 hours at room temperature, after which they were inoculated with conidida of Sphaerotheca fuliginea. After keeping the seedlings in a greenhouse for 7 days, the disease controlling index was evaluated on the basis of the diseased area on the third and fourth leaves.

[6] = tested on: Venturia inaequalis; experiment: Preventive activity against apple scab (Experiment 9); settings: apple seedlings sprayed at 300 ppm, inoculated after 24 hours, 3 days moist chamber then 10 days greenhouse; diseased area on third and fourth leaves
Method: Apple seedlings at the 3 - 4 leaf stage were sprayed with an aqueous suspension of the test compound at a concentration of 300 ppm (30 ml/3 pots). The seedlings were then kept for 24 hours at room temperature, after which they were inoculated with the fungus, Venturia inaequalis, by spraying a spore suspension of the fungus over the seedlings. After inoculation, the seedlings were kept in a moist chamber for 3 days at 20 - 22 °C and then moved to a greenhouse at 20 - 22°C for 10 days. The disease controlling index was given on the basis of the diseased area on the third and fourth leaves.

[7] = tested on: Candida albicans; experiment: ED50 in mice infected with Candida albicans, oral treatment (Experiment 11); settings: treated orally
Method: Groups of mice (each group contained 10 mice) were inoculated with 7 to 9 x 10^6 spores per mouse of Candida albicans. 1, 4, and 24 hours after the inoculation, each mouse was orally administered 20 mg/kg of the test compound each time. The anti-fungal activity was assessed by the survival rate 9 days after infection. The survival rate was recorded as 0% 2 days after infection in an untreated (control) group. […] Following essentially the same procedure as that described in Experiment 10, mice were infected with Candida albicans, and treated orally with various compounds of the invention, as shown in the following Table 21. Fifteen days after infection (or fourteen days in the case of the compounds of Example Nos. 5 and 10), ED50 values were determined and are reported in the following Table 21.

[8] = tested on: Pyricularia oryzae; settings: rice seedlings (variety Sachikaze), sprayed 24 hours after inoculation at 10 ppm (30 ml/3 pots), further 6 days; number of lesions on the upper two leaves
[9] = tested on: Rhizoctonia solani; experiment: Curative activity against sheath blight of rice plants (Experiment 3); design: key: 0 = disease as untreated, 5 = no disease (complete control); settings: rice seedlings (variety Nihonbare), sprayed 24 hours after inoculation at 10 ppm (30 ml/3 pots), further 5 days; height of the lesions
Method: Rice seedlings (variety Nihonbare) at the 4 - 5 leaf stage were inoculated with the fungus, Rhizoctonia solani, by placing 4 - 5 oat grains on which the fungus had previously been cultured around the base of each rice seedling and keeping them in a moist chamber at 25 - 27 °C. After 24 hours, the rice seedlings were sprayed with an aqueous suspension of the test compound at a concentration of 10 ppm (30 ml/3 pots) and they then continued to be kept in the moist chamber for a further 5 days. The disease controlling index was given on the basis of the height of the lesions formed on the rice seedlings.
(§2) The compounds tested have the formula (1-1), in which Ar represents the group shown at the beginning of each part of the Table and R^1, R^2, X and Y are as defined in the Table.
as §1

[10] = tested on: Gibberella Fujikuroi; experiment: Activity against bakanae disease of rice plants by seed soaking (Experiment 5); design: key: 0 = disease as untreated, 5 = no disease (complete control); settings: infected rice seeds (variety Tanginbozu) immersed 3 days in aqueous suspension (concentration not given), 3 weeks; number of diseased seedlings
Method: Ten grams of rice seeds (variety Tanginbozu), infected with Gibberella Fujikuroi, were immersed in 20 ml of an aqueous suspension of the test compound for 3 days. At the end of this time, the treated seeds were densely sown in soil in pots, and the pots were placed in a greenhouse at 20 - 30 °C for 3 weeks. The disease controlling index was given on the basis of the number of diseased seedlings.
as §2, §1

[11] = 336 h, fourteen days after infection (Example Nos. 5 and 10)
[12] = 360 h, fifteen days after infection

**Q.** Which results are given for C[C@@H](NC(=O)c1ccc(Cl)cc1)[C@](O)(Cn1cncn1)c1ccc(Cl)cc1Cl (relative stereo) [Example 5, (2R*, 3R*)-3-(4-Chlorobenzoylamino)-2-(2,4-dichlorophenyl)-1-(1H-1,2,4-triazol-1-yl)-2-butanol]?
**A.** disease controlling index [1]: 5; disease controlling index [2]: 4 (disease rate is less than 10% of the untreated plant); disease controlling index [3]: 5; disease controlling index [4]: 5; Index (disease controlling index) [5]: 5; Index (disease controlling index) [6]: 5; ED50 [7, 11]: 7.07 mg/kg

**Q.** C[C@@H](NC(=O)c1ccc(C(F)(F)F)cc1)[C@](O)(Cn1cncn1)c1ccc(F)cc1F (relative stereo) [Example 17, (2R*, 3R*)-2-(2,4-0ifluorophenyl)-1-(1H-1,2,4-triazol-1-yl)-3-(4-trifluoromethylbenzoylamino)-2-butanol] was tested. Which disease controlling index [8] did it give?
**A.** 5

**Q.** And the disease controlling index [1]?
**A.** 4 (disease rate is less than 10% of the untreated plant)

**Q.** And the disease controlling index [9]?
**A.** 4 (disease rate is less than 10% of the untreated plant)

**Q.** And the disease controlling index [10]?
**A.** 4 (disease rate is less than 10% of the untreated plant)

**Q.** What about the disease controlling index [3] of the same molecule?
**A.** 5

**Q.** What about the disease controlling index [4] of the same molecule?
**A.** 5

**Q.** And the “Index (disease controlling index)” value [5]?
**A.** 4 (disease rate is less than 10% of the untreated plant)

**Q.** And the ED50 [7, 12]?
**A.** 0.86 mg/kg

**Q.** C[C@@H](SC(=O)c1ccc(C(F)(F)F)cc1)[C@](O)(Cn1cncn1)c1ccc(Cl)cc1Cl (relative stereo) [Example 46, (2R*, 3R*)-2-(2,4-Dichlorophenyl)-1-(1H-1 ,2,4-triazol-1-yl)-3-[4-(trifluoromethyl)benzoylthio]-2-butanol] was tested. Which “Index (disease controlling index)” value [5] did it give?
**A.** 5

**Q.** And the “Index (disease controlling index)” value [6]?
**A.** 5

**Q.** What about the ED50 [7, 12] of the same molecule?
**A.** 0.73 mg/kg

**Q.** C[C@@H](N(C)C(=O)c1ccc(C(F)(F)F)cc1)[C@](O)(Cn1cncn1)c1ccc(F)cc1F (relative stereo) [Example 59, (2R^*, 3R*)-2-(2,4-Difluorophenyl)-3-{N-methyl-N-[4-(trifluoromethyl)benzoyl]amino}-1-(1H-1,2,4-triazol-1-yl)-2-butanol] was tested. Which disease controlling index [1] did it give?
**A.** 5

**Q.** What about the disease controlling index [9] of the same molecule?
**A.** 5

**Q.** And the disease controlling index [2]?
**A.** 4 (disease rate is less than 10% of the untreated plant)

**Q.** What about the disease controlling index [10] of the same molecule?
**A.** 4 (disease rate is less than 10% of the untreated plant)

**Q.** What about the “Index (disease controlling index)” value [5] of the same molecule?
**A.** 5

**Q.** And the “Index (disease controlling index)” value [6]?
**A.** 5

**Q.** What about the ED50 [7, 12] of the same molecule?
**A.** 0.66 mg/kg

**Q.** With C[C@@H](NC(=O)c1ccc(Cl)cc1)[C@](O)(Cn1cncn1)c1ccc(Cl)cc1Cl [Example 10, (2R, 3R)-3-(4-Chlorobenzoylamino)-2-(2,4-dichlorophenyl)-1-(1H-1,2,4-triazol-1-yl)-2-butanol] as the molecule, how does the disease controlling index [8] read?
**A.** 4 (disease rate is less than 10% of the untreated plant)

**Q.** And the disease controlling index [1]?
**A.** 5

**Q.** And the disease controlling index [9]?
**A.** 5

**Q.** And the disease controlling index [10]?
**A.** 5

**Q.** What about the “Index (disease controlling index)” value [5] of the same molecule?
**A.** 5

**Q.** What about the “Index (disease controlling index)” value [6] of the same molecule?
**A.** 5

**Q.** What about the ED50 [7, 11] of the same molecule?
**A.** < 2.5 mg/kg

**Q.** For C[C@@H](NC(=O)c1ccc(C(F)(F)F)cc1F)[C@](O)(Cn1cncn1)c1ccc(F)cc1F [Example 65], which disease controlling index [8] is on record?
**A.** 5

**Q.** And the disease controlling index [1]?
**A.** 5

**Q.** What about the disease controlling index [9] of the same molecule?
**A.** 5

**Q.** And the disease controlling index [10]?
**A.** 4 (disease rate is less than 10% of the untreated plant)

**Q.** And the disease controlling index [3]?
**A.** 5

**Q.** What about the disease controlling index [4] of the same molecule?
**A.** 5

**Q.** What about the “Index (disease controlling index)” value [5] of the same molecule?
**A.** 5

**Q.** And the ED50 [7, 12]?
**A.** < 0.625 mg/kg
